Assay [1] concerns BT-474 tumor. Conditions: xenograft models; cited from earlier work.
In assay [2] the test system is PR target genes (CHN2, RGS2, ACOT6) in BT-474 human breast cancer cells. Description: RT-qPCR of PR target genes in BT-474 cells, with or without MEK inhibitor. The assay is classed as cell-based. Conditions: R5020 10^−8 M plus RU486 10^−7 M, 6 h. How it is done: For reverse transcription quantitative polymerase chain reaction (RT-qPCR) assays, 5×10^5 cells/well were plated in 6-well dishes, serum starved in modified IMEM for 1 day before treatments (see individual figures). RNA was extracted using TriPure reagent (Roche, catalog #11667157001) and cDNA was created using the Transcriptor cDNA first-strand cDNA synthesis kit (Roche, catalog #04897030001). Relative expression levels were determined by qPCR assays performed on a Roche LightCycler II using SYBR green master-mix (Roche, catalog #04887352001). Target gene quantification levels were normalized to the expression of standard housekeeper genes: TBP, ACTB, and/or GAPDH. For cells expressing inducible PR, the protocol was the same as above, except prior to ligand treatments, the cells were induced with AP21967 (10^−9 M) for 2 d.
For experiments using MEK inhibitors, BT-474 cells were plated in […] dishes at 5×10^5 cells/well. One day later, the cells were washed and serum starved in modified IMEM for 1d. These cells were pre-treated with the MEK inhibitor U0126 (5 uM, EMD Chemicals, catalog #662005) for 30 min R5020 (10^−8 M) and/or RU486 (10^−7 M) was then added to cell culture wells for 6 h before RNA/protein isolation and RT-qPCR/western blotting was performed, as described above.
On the technique in general: Real-time PCR tracks product formation cycle by cycle.

The subject of assay [3] is BT-474 cells. Nature of the assay: MTT proliferation assay in BT-474 cells. It counts as cell-based, human. Conditions: MTT assays over six days in vitro; data not shown. The protocol: Cell proliferation was measured using MTT assays (3-[4,5-dimethylthiazol-2-yl]-2,5-diphenyltetrazolium bromide, Sigma catalog #M2128). In 24-well plates, 1×10^4 cells/well were plated in cMEM (inducible PR expression was induced with AP21967 (10^−9 M) for 2 days), cells were washed and steroid starved in modified IMEM supplemented with 5% dextran-coated charcoal-treated (DCC) FBS for 1 day before the addition of R5020 (10^−8 M). At days 0, 2, 4, 6, cell proliferation was determined by adding 60 ul MTT (5 mg/ml) to each 0.5 ml cell culture well for 3 hours, medium was carefully removed and solublization solution (90% v/v DMSO/PBS) was added to lyse the cells. Lysate absorbance (650 and 570 nm) was measured using a plate reader. 650 nm measurements were subtracted from 570 nm measurements and sample means were normalized to day zero.
(Formazan colour is commonly taken as a measure of viable cells.)

Assay [4] has as its system breast cancer. Conditions: in vivo; cited from earlier work.
Assay [5] relates to PR target genes in T47D cells expressing WT PR, SUMO-deficient PR (KR) or empty vector. Description: Gene expression profiling (Illumina HT-12v4) of T47D cell lines treated with progesterone or antiprogestins. It counts as cell-based, human. The protocol:
T47D cells stably expressing pIRES-neo3 empty vector, WT or KR PR were serum starved in modified IMEM (Gibco, catalog #A10488) for 1 day, treated with R5020 (10^−8 M) or vehicle control for 6 h before RNA extraction using a RNeasy kit (QIAgen, catalog #74104). Six h of progestin treatment allowed for substantial PR-dependent gene expression as compared to prior studies (Jacobsen et al., 2005; Richer et al., 2002). DNase I treated (QIAgen, catalog #79254) RNA samples from duplicate experiments were prepared for expression analysis using the Illumina HT-12v4 bead chip platform according to manufacture's protocols. Data were analyzed within R software using the Bioconductor (Gentleman et al., 2004) package called lumi where raw intensities were log2 transformed and quantile normalized. Differentially expressed genes were analyzed using the limma package, where empirical Bayes was used to better estimate the variance of the genes. Gene expression data presented contain log2 normalized intensities and biological comparisons presented (e.g. R5020/vehicle) contain log2 fold change with the Benjamini and Hochberg (BH) adjusted P value (Benjamini and Hochberg, 1995). To generate the heat map in FIG. 1C, unsupervised hierarchical clustering of genes was carried out using heatmap. 2 function in the R package gplots. Clustering was performed using Euclidean distance and complete linkage. Rows were scaled to have mean zero and standard deviation equal to one.
Gene expression profiles in T47D cell lines treated with antiprogestins were obtained using identical methods as described above, except for these notable differences. After serum starvation, cells stably expressing empty vector, WT, or KR PR were treated for 6 hours under one of eight possible conditions: (1) ethanol (vehicle control), (2) progesterone (10^−8 M), (3) RU486 (10^−7 M), (4) aglepristone (10^−7 M), (5) onapristone (10^−7 M), (6) RU486 (10^−7 M) plus progesterone (10^−8 M), (7) aglepristone (10^−7 M) plus progesterone (10^−8 M), or (8) onapristone (10^−7 M) plus progesterone (10^−8 M). Gene expression levels were measured, normalized, analyzed, and heat maps were generated using the methods described above.
Raw microarray data from two independent microarray experiments (both performed using the Illumina HT-12v4 platform described above) were combined and normalized together within R software using the Bioconductor (Gentleman et al., 2004) package called lumi where raw intensities were log 2 transformed and quantile normalized.
Sample Sizes & Composition: For the first analysis, two KR cell replicates were used that had been stimulated with R5020 a synthetic progestin in the first experiment and three KR cell replicates that had been stimulated with progesterone in the second experiment. The same was accomplished regarding the corresponding WT cell replicates. Pertaining to the first analysis, therefore, a sample size of n=5 was used for each of the two groups (KR & WT). Regarding the second analysis, we used three KR cell replicates that had been co-treated with progesterone plus onapristone in the second experiment; and we used three WT cell replicates that had been co-treated with progesterone plus onapristone also in the second experiment (n=3 for each of the two groups). Regarding the third analysis, we used three KR cell replicates that had been co-treated with progesterone plus RU486 in the second experiment; and we used three WT cell replicates that had been co-treated with progesterone plus RU486 also in the second experiment (n=3 for each of the two groups). Regarding the fourth analysis, three KR cell replicates was used that had been co-treated with progesterone plus onapristone; and three WT cell replicates were used that had been treated with vehicle control (ethanol) (n=3 for each of the two groups). […]

Assay [6] relates to PR target genes (MSX2, RGS2, MAP1A, PDK4) in MCF-7 cells. Description: RT-qPCR of PR target genes in MCF-7 cells stably expressing WT or KR PR. It counts as cell-based, human. Conditions: R5020 10^−8 M plus RU486 10^−7 M, 6 h.

“Also recorded” adds a separate entry of the source.

For the molecule `CC#C[C@]1(O)CC[C@H]2[C@@H]3CCC4=CC(=O)CCC4=C3[C@@H](c3ccc(N(C)C)cc3)C[C@@]21C` [RU486, (10S,11S,14S,15S,17R)-17-[4-(dimethylamino)phenyl]-14-hydroxy-15-methyl-14-(prop-1-yn-1-yl)tetracyclo[8.7.0.0^ {2,7}.0^{11,15}]heptadeca-1,6-dien-5-one], the BT-474 tumor growth result in assay [1] was “dramatically inhibits”. Moreover, in assay [2], the “R5020-induced expression of CHN2, RGS2 and ACOT6” value is “entirely blocked”. The BT-474 cell proliferation result in assay [3] was “significantly blocks”. Further, the “outcome of phase II clinical trials as a breast cancer treatment” value in assay [4] is reported as “unsuccessful”. The “expression of progesterone-regulated PR target genes” value in assay [5] (T47D cells expressing SUMO-deficient PR (KR), antiprogestin 10^−7 M alone or plus progesterone 10^−8 M, 6 h) is reported as “caused many PR target genes to become upregulated”. Moreover, the “number of genes significantly differentially expressed between KR and WT cells” value in assay [5] (both cell lines co-treated with progesterone plus the antiprogestin) came to 7 genes. The “significant differential expression of the 15 biomarker genes between KR and WT cells” value in assay [5] (both cell lines co-treated with progesterone plus the antiprogestin, with the exception of one gene (CDH10)) is given as “completely annulled”. The agonistic activity entry in assay [5] (cells expressing hyperactive / SUMO-deficient PR (KR)) is reported as “substantial agonistic activity; also recorded: agonistic properties”. In assay [6], the “R5020-induced mRNA expression of MSX2, RGS2, MAP1A and PDK4” value is listed as “completely abolished”.

The record behind these values is patent US10501800B2, “Breast cancer prognosis” (Regents of the University of Minnesota, priority 2012, dated 2019).
